{
  "source": "patent US6489307B1",
  "about": "“Antisense compositions targeted to β1-adrenoceptor-specific mRNA and methods of use” (University of Florida, priority 1998, dated 2002)",
  "key": {"SHRs": {"test_system": "SHRs", "assay": "Blood pressure of SHRs by tail cuff", "format": "in vivo, rat (SHR)", "conditions": "for reduction of blood pressure throughout the treatment period: repeated treatment for more than 2 months; for Duration (Range) / Range of Reduction / Maximum Reduction in Blood Pressure: single i.v. 0.5 mg/kg", "protocol": "(§1) Rats were warmed for 20 to min. in cages on heating pads. The temperature was controlled at 35° C. to 37° C. Then the rats were placed in a plastic restrainer kept at 37° C. A pneumatic pulse sensor was attached to the tail. After cuff inflation, SBP was determined as the first pulsatile oscillation on the descending side of the pressure curve. HR was determined by manual counting of pulse numbers per unit time. BP and HR were recorded by a Narco physiograph. Data values of each rat were taken as an average of at least 4 stable readings. Baseline was determined by averaging 3 days of measurements before antisense administration.\nBlood pressure was measured by the tail-cuff method as described above. Systolic blood pressure (SBP) was determined as the first pulsatile oscillation on the descending side of the pressure curve. Data values of each rat were taken as an average of ≧4 stable readings. Baseline was determined by averaging 3 days of measurements before antisense administration.\nas §1, with “for 20-30 min” for “for 20 to min.”, “at 35-37°” for “at 35° C. to 37°”, “Then” for “Then the”, “of” for “of the”, “least four” for “least 4”, “averaging three” for “averaging 3”"}, "isolated rat heart": {"test_system": "isolated rat heart", "assay": "Isolated perfused heart model, myocardial ischemia-reperfusion", "format": "in vivo, Sprague-Dawley rats", "conditions": "for ischemia-reperfusion-induced myocardial dysfunction (LVSP, dLVP, LVEDP, CPP): ODN 200 μg/rat i.v. with liposomes 4 days before, 30 min ischemia, 30 min reperfusion; for ischemia-reperfusion induced ventricular abnormality (dLVP, CPP, LVEDP): ODN 1 mg/kg i.v. 4 days before, atenolol 2 mg/kg 6 hr before", "protocol": "Male Sprague-Dawley rats weighing 200-250 g were injected intravenously with either AS-ODNs (n=7) or IN-ODNs (n=7) at a dose of 200 μg/rat 4 days before excising the hearts. DOTAP/DOPE liposomes (700 μg/rat) were given along with ODNs.\nThe hearts were excised rapidly and placed in ice-cold Kreb-Henseleit buffer (mmol/L: NaCl 118, KCl 4.7, KH2PO4 1.2, MgSO4 1.2, CaCl2 1.25, NaHCO3 25, and glucose 11, pH 7.4). Within one min, the hearts were transferred to an isolated perfusion apparatus and perfused via the aorta with oxygen-saturated (95% O2+5% CO2) Kreb-Henseleit buffer kept at 37° C. with the use of a MasterFlex pump (model 7015-21, Cole-Palmer Instrument Co.) according to the modified Langendroff procedure (Yang et al., 1998; Neely and Rovetto, 1975). The heart was placed in a semi-closed circulating water-warmed (37° C.) air chamber, paced atrially with a Medtronic 5320 pacemaker at a rate of 300 bpm, and perfused at a constant flow (5.5-6.0 ml/per min). Coronary perfusion pressure (CPP) was measured via a catheter placed just proximal to the aorta and connected to a Gould Statham P23ID pressure transducer. A latex balloon filled with water and connected to a Gould Statham P23ID pressure transducer was inserted in the left ventricle through the left atrium to measure left ventricular end-diastolic pressure (LVEDP), left ventricular systolic pressure (LVSP), and developed left ventricular pressure (dLVP) (dLVP=LVSP−LVEDP). LVEDP during equilibration was set at 5 to 7 mmHg. All measurements were continuously recorded on a 4-channel record (Astro-Med).\nSix hearts from saline-treated rats were continuously perfused with Kreb-Henseleit buffer for 80 min and served as sham control. Hearts from other rats, after 20 min of equilibration, were subjected to 30 min of ischemia followed by 30 min of reperfusion. After completion of the study, hearts were frozen in liquid-nitrogen for β1-AR analysis by binding assay, β1-AR protein analyses by Western blot, β1-AR mRNA analysis by reverse transcription-polymerase chain reaction (RT-PCR™), and measurement of MDA.\nThe protective effects of β1-AS-ODNs were tested in a rat model of myocardial ischemia-reperfusion. Five groups of SD rats were studied. Sham controls (n=6) were injected with saline and perfused continuously for 80 min without ischemia/reperfusion (I/R). In other groups, hearts were perfused for 20 min and subjected to global ischemia (30 min) followed by reperfusion (30 min). […] AS-ODN+I/R (n=7) or INV-ODN+I/R (n=7) were injected iv. with 1 mg/kg β1-AS-ODN or INV-ODN 4 days before the I/R study was performed."}, "β1-AR": {"test_system": "β1-AR", "assay": "β-AR density in myocardium after ischemia-reperfusion (binding assay)", "format": "in vivo, Sprague-Dawley rats", "protocol": "Membrane protein was prepared from left ventricles as previously described (Baker and Pitha, 1982). For saturation studies, 100 μg membrane protein was incubated in triplicate with ^125I-(−)iodocyanopindolol (I-CYP, NEN Life Science, 6.25-100 pM) in a total volume of 250 μl containing 50 mM Tris-HCl (pH 7.4), 5 mM MgCl2 at 36° C. for 60 min. The nonspecific and β2-adrenoceptor binding were determined in the presence of 1 μM (±)-alprenolol and […] (RBI), respectively. Then the reaction mixture was passed through Whatman GF/B glass filter using Brandel harvester and the radioactivity was counted for one min."}, "β1-AR protein": {"test_system": "β1-AR protein", "assay": "Western blot of β1-AR protein in myocardium", "format": "in vivo, Sprague-Dawley rats", "conditions": "Western analysis", "protocol": "Myocardial tissues were homogenized and lysed in boiling lysis buffer (1% SDS, 0.1% Triton X-100®, and 10 mmol/L Tris-HCl, pH 7.4) and centrifuged at 10,000 RPM for 30 minutes at 4° C. The lysate protein from myocardial tissues (20 μg/lane) was separated by 8% SDS-PAGE using a Bio-Rad Mini-Protean cell, transferred to nitrocellulose membrane (Amersham). After incubation in blocking solution (4% non-fat milk, Sigma), membranes were incubated with 1:1000 dilation primary antibody (polycolonal antibody to β1-AR, Santa Cruz Biotechnology) for overnight at 4° C. Membranes were washed and incubated with 1:2000 dilution second antibody (Amersham) for one hr. The membranes were detected with the ECL system, as described previously (Yang et al, 1998; Li et al., 1999)."}, "[1]": {"conditions": "0.5 mg/kg i.v., charge ratio 1.5"}, "[2]": {"conditions": "0.5 mg/kg i.v., charge ratio 2.5"}, "[3]": {"conditions": "0.5 mg/kg i.v., charge ratio 3.5"}, "[4]": {"conditions": "single 1 mg/kg, liposomes DNA/lipid 1:0.5"}},
  "note": "Entries after “also recorded” stand apart in the source; their conditions may differ.",
  "data": [
    {"substance": "5′-AGCCGTACCCGCGCC-3′ (phosphorothioate backbone, further chemistry not given here) [Inverted ODN, 15-mer inverted ODN control, reference compound]", "values": [
      {"measurement": "effect on SBP", "setting": "SHRs; 1 mg/kg with liposomes", "result": "No effect"},
      {"measurement": "reduction of blood pressure throughout the treatment period", "setting": "SHRs", "result": "no change"},
      {"measurement": "ischemia-reperfusion-induced myocardial dysfunction (LVSP, dLVP, LVEDP, CPP)", "setting": "isolated rat heart", "result": "no effect"},
      {"measurement": "ischemia-reperfusion induced ventricular abnormality (dLVP, CPP, LVEDP)", "setting": "isolated rat heart", "result": "no effect"},
      {"measurement": "effect on β1-AR density in ischemic-reperfused myocardium", "setting": "β1-AR; rat, in vivo", "result": "no effect"},
      {"measurement": "ischemia-reperfusion-mediated increase in β1-AR protein expression", "setting": "β1-AR protein", "result": "no effect"}
    ]},
    {"substance": "5′-CCGCGCCCATGCCGA-3′ (phosphorothioate backbone, further chemistry not given here) [β1-AS-ODN, 15-mer antisense ODN targeted to the AUG start codon of rat β1-AR mRNA]", "values": [
      {"measurement": "duration of SBP reduction", "setting": "SHRs; 0.5 mg/kg i.v., charge ratio 0.5", "result": "7 to 8", "unit": "days"},
      {"measurement": "reduction of SBP", "setting": "SHRs; 0.5 mg/kg i.v., charge ratio 0.5, representative experiment", "result": "up to 33 mm Hg"},
      {"measurement": "duration of the hypotensive impact", "setting": "SHRs; [1]", "result": 20, "unit": "days"},
      {"measurement": "maximum drop in SBP", "setting": "SHRs; [1]", "result": "≈ 35 mm Hg"},
      {"measurement": "duration of the hypotensive impact", "setting": "SHRs; [2]", "result": 33, "unit": "days"},
      {"measurement": "maximum drop in SBP", "setting": "SHRs; [2]", "result": "≈ 35 mm Hg"},
      {"measurement": "duration of the hypotensive impact", "setting": "SHRs; [3]", "result": 33, "unit": "days"},
      {"measurement": "maximum drop in SBP", "setting": "SHRs; [3]", "result": "≈ 25 mm Hg"},
      {"measurement": "effect on SBP", "setting": "SHRs; 0.5 mg/kg i.v., β1-AS-ODN alone (ratio 0)", "result": "did not change SBP"},
      {"measurement": "reduction of blood pressure throughout the treatment period", "setting": "SHRs", "result": "20-30 mmHg"},
      {"measurement": "duration of diminished SBP", "setting": "SHRs; [4]", "result": 8, "unit": "days"},
      {"measurement": "maximum drop in SBP", "setting": "SHRs; [4]", "result": "38±5", "unit": "mm Hg"},
      {"measurement": "Duration (Range)", "setting": "SHRs; charge ratio 0.5", "result": "7 to 8", "unit": "days"},
      {"measurement": "Range of Reduction", "setting": "SHRs; charge ratio 0.5", "result": "24-38 mm Hg"},
      {"measurement": "Duration (Range)", "setting": "SHRs; charge ratio 1.5", "result": "18 to 20", "unit": "days"},
      {"measurement": "Range of Reduction", "setting": "SHRs; charge ratio 1.5", "result": "18-35 mm Hg"},
      {"measurement": "Duration (Range)", "setting": "SHRs; charge ratio 2.5", "result": "20 to 33", "unit": "days"},
      {"measurement": "Range of Reduction", "setting": "SHRs; charge ratio 2.5", "result": "20-34 mm Hg"},
      {"measurement": "Duration (Range)", "setting": "SHRs; charge ratio 3.5", "result": "20 to 33", "unit": "days"},
      {"measurement": "Range of Reduction", "setting": "SHRs; charge ratio 3.5", "result": "15-24 mm Hg"},
      {"measurement": "Maximum Reduction in Blood Pressure", "setting": "SHRs; charge ratio liposome/ODN 0", "result": 2, "unit": "mm Hg"},
      {"measurement": "Maximum Reduction in Blood Pressure", "setting": "SHRs; charge ratio liposome/ODN 0.5", "result": "35-38 mm Hg"},
      {"measurement": "Maximum Reduction in Blood Pressure", "setting": "SHRs; charge ratio liposome/ODN 1.5", "result": "28-35 mm Hg"},
      {"measurement": "Maximum Reduction in Blood Pressure", "setting": "SHRs; charge ratio liposome/ODN 2.5", "result": "30-34 mm Hg"},
      {"measurement": "Maximum Reduction in Blood Pressure", "setting": "SHRs; charge ratio liposome/ODN 3.5", "result": "20-24 mm Hg"},
      {"measurement": "hypotensive effect", "setting": "SHRs; single i.v. injection with cationic liposomes, summary", "result": "30 to 35", "unit": "mm Hg"},
      {"measurement": "preserving dLVP after ischemia-reperfusion, comparison with atenolol", "setting": "isolated rat heart; 200 μg/rat 4 days before", "result": "more effective than atenolol"},
      {"measurement": "overall protective effects, comparison with atenolol", "setting": "isolated rat heart; 1 mg/kg i.v. 4 days before", "result": "equivalent to or even better than atenolol"},
      {"measurement": "restoration of dLVP, comparison with atenolol", "setting": "isolated rat heart; 1 mg/kg i.v. 4 days before", "result": "to a greater extent than atenolol"},
      {"measurement": "ischemia-reperfusion-induced myocardial dysfunction (LVSP, dLVP, LVEDP, CPP)", "setting": "isolated rat heart", "result": "markedly attenuated"},
      {"measurement": "ischemia-reperfusion induced ventricular abnormality (dLVP, CPP, LVEDP)", "setting": "isolated rat heart", "result": "beneficial effects; also recorded: markedly attenuated"},
      {"measurement": "β1-AR density (Bmax) in ischemic-reperfused myocardium", "setting": "β1-AR; vs 28.7±5.4 in saline-treated rat hearts", "result": "15.9 ± 1.3", "unit": "fmol/mg"},
      {"measurement": "ischemia-reperfusion-mediated increase in β1-AR protein expression", "setting": "β1-AR protein", "result": "abolished"}
    ]}
  ]
}
